The results in this text go back to US20160067246A1, “USE OF PHOSPHODIESTERASE 5A INHIBITORS FOR THE TREATMENT OF MUSCULAR DYSTROPHY” (CEDARS-SINAI MEDICAL CENTER, priority 2013, published 2016).

As a reminder, the half-life is the time in which the quantity being followed falls by half.

What all share (assay type): in vivo, human
In data set [1] the test system is boys with Duchenne muscular dystrophy (DMD). The data set is described as follows: Functional sympatholysis (LBNP, NIR spectroscopy, rest vs handgrip) with PDE5 inhibition in DMD. The following applies: for effect of chronic background medication on functional sympatholysis / functional ischemia in DMD: boys with DMD on chronic glucocorticoid or prophylactic cardiac treatment; for LBNP-induced ΔHbO2+MbO2 (% TLS) at rest / LBNP-induced ΔHbO2+MbO2 (% TLS) during handgrip: DMD, analysis using all 12 boys. On the procedure:
Forearm muscle oxygenation was measured with near-infrared (NIR) spectroscopy, as previously described.^4B Briefly, optodes were placed over the belly of the flexor digitorum profundus, the main muscle recruited during handgrip. The optodes were housed in a customized flexible rubber casing, ensuring a fixed and invariant position of the optodes relative to each other, and was secured to the skin with adhesive. The optodes were covered with an optically dense, black vinyl sheet, to minimize interference from external light or loss of NIR transmitted light. The forearm was wrapped with an elastic bandage to minimize movement of the optodes.
Before each experiment, absorption and scattering coefficients were calibrated against an external standard. After each experiment, a cuff was inflated on the upper arm to supra-systolic pressure of 200 mmHg to establish the total labile signal (TLS, the difference between the baseline and nadir in muscle tissue oxygenation). Changes in forearm tissue oxygenation were expressed as a percentage of TLS.
Handgrip exercise was performed with a dynamometer (Smedley Hand Dynamometer modified by Stoelting). To determine maximal voluntary contraction (MVC), each subject was asked to grip the dynamometer as hard as possible. […] Subjects performed intermittent isometric handgrip (20 handgrips per minute, 50% duty cycle) at 20% MVC for 7 minutes.
The subjects lower body was enclosed in a negative pressure chamber to the level of the iliac crest as previously described.^9B The pressure of the chamber was measured by a Statham transducer (Gould Inc.). Lower body negative pressure (LBNP) at −20 mmHg simulates mild orthostatic stress (that is, transition from the supine to the seated position). This technique mainly unloads the cardiopulmonary baroreceptors, producing highly reproducible reflex increases in sympathetic vasoconstrictor drive to the skeletal muscle vasculature without changing systemic blood pressure.^9B
The subjects' lower body was enclosed in a negative pressure chamber to the level of the iliac crest as previously described. The pressure in the chamber was measured by a Statham transducer (Gould Inc.). Lower body negative pressure (LBNP) at −20 to −30 mmHg simulates mild orthostatic stress caused by transition from the supine to the seated position. This technique mainly unloads the low-pressure cardiopulmonary baroreceptors, producing highly reproducible reflex increases in sympathetic vasoconstrictor drive to the skeletal muscle vasculature without changing systemic blood pressure. To measure exercise-induced attenuation of reflex vasoconstriction (i.e., functional sympatholysis), the LBNP was (i) applied at rest, and then (ii) superimposed on mild rhythmic handgrip at 20% MVC. Reflex vasoconstriction was measured as the LBNP-induced decrease in forearm muscle oxygenation by NIR spectroscopy. Using the pressure inside the LBNP chamber as a trigger, the Powerlab software was programed to mean the HbO2+MbO2 signal for 20 seconds before the onset of LBNP and for 20 seconds before the offset of LBNP; the difference between these mean values was taken as the LBNP-induced change in forearm muscle tissue oxygenation (20). Blood pressure, heart rate, and handgrip force were also recorded in response to 2 minutes of LBNP applied at rest and during the third to fifth minutes of the 7-minute exercise protocol.
Patients received 0.5 mg/kg of oral sildenafil or tadalafil on day 1, followed by 1.0 mg/kg of sildenafil or tadalafil on day 2. Patients then crossed over 2 weeks later for the opposite drug. Experiments were performed 1 hour (sildenafil) or 3 hours (tadalafil) after oral treatment to match the experiment with the peak blood level. Patients were queried about potential side-effects throughout the study visit. […]

A short description of data set [2]: Pharmacokinetic study and drug blood levels in boys with DMD. The following applies: male, human, in vivo. The procedure:
Serum blood samples for pharmacokinetic determinations were collected from patients at time 0-hr, 0.25-hr, 0.5-hr, 1-hr, 2-hr, 4-hr, 8-hr, and 24-hr following each treatment (sildenafil and tadalafil) and each dose (0.5 vs. 1.0 mg/kg). Blood levels were measured with high-performance liquid chromatography-tandem mass spectrometry (NMS Labs).
Patients received 0.5 mg/kg of oral sildenafil or tadalafil on day 1, followed by 1.0 mg/kg of sildenafil or tadalafil on day 2. Patients then crossed over 2 weeks later for the opposite drug. Experiments were performed 1 hour (sildenafil) or 3 hours (tadalafil) after oral treatment to match the experiment with the peak blood level. Patients were queried about potential side-effects throughout the study visit.

Data set [3] deals with boys with Duchenne muscular dystrophy (DMD). The data set is described as follows: Exercise-induced hyperemia: brachial artery blood flow by Doppler ultrasound and hemodynamics, rest and post handgrip. Also noted: key to BA velocity: mean blood velocity in cm/s; Heart rate: unit not given here. On the procedure:
Subjects were studied in the supine position. Heart rate was measured continuously by electrocardiography, and blood pressure measured by automated oscillometric sphygomanometry using a child's cuff ([…] Monitor 300 Series). Brachial artery mean blood velocity (MBV) was measured from the exercising arm using pulsed-Doppler ultrasonography (Siemens iE33). Data were acquired continuously with a 9-MHz probe with a 60° angle of insonation, placed on the skin surface distal to the axilla. The ultrasound gate was optimized to ensure complete insonation of the entire vessel cross-section with constant intensity. The Doppler audio signal was converted to a real-time flow velocity signal using a validated Doppler audio converter,^8B and recorded using a PowerLab data acquisition system (ADInstruments, CO). Brachial artery diameter was measured by B-mode imaging in triplicate at rest. […] Brachial artery blood flow was calculated as MBV (cm/s)·πr^2·60, where r is radius of the brachial artery. […] exercise was performed with a dynamometer ([…] Dynamometer modified by Stoelting). To determine maximal voluntary contraction (MVC), each subject was asked to grip the dynamometer as hard as possible. […] Vascular conductance was calculated as forearm blood flow divided by mean arterial pressure. […] Patients then crossed over 2 weeks later for the opposite drug. […] Patients were queried about potential side-effects throughout the study visit. Baseline characteristics of patients and controls were compared using Student's t test. Exercise-induced attenuation of reflex vasoconstriction (functional sympatholysis) was assessed by comparing the LBNP-induced AHbO2+MbO2 (% TLS) at rest versus the LBNP-induced decrease in ΔHbO2+MbO2 during handgrip. Group differences in ΔHbO2+MbO2 were assessed using a Student's t test. The drug treatment effect on LBNP-induced Δ·HbO2+MbO2 (% TLS) at rest versus the LBNP-induced decrease in ΔHbO2+MbO2 during handgrip was compared to baseline for each patient using a Student's t test. The group difference in the % Δ in brachial artery blood flow was assessed using a student's t test. The drug treatment effect on the % Δ in brachial artery blood flow was compared using a student's t test. All analyses were performed in SigmaPlot. Data are expressed as mean±SEM, unless otherwise specified.

Consider `CC(=O)OCC(=O)[C@@]12N=C(C)O[C@@H]1C[C@H]1[C@@H]3CCC4=CC(=O)C=C[C@]4(C)[C@H]3[C@@H](O)C[C@@]12C` [deflazacort], for which the “effect of chronic background medication on functional sympatholysis / functional ischemia in DMD” value in data set [1] was “neither prednisone nor deflazacort protects dystrophic muscle from functional ischemia”.

Take `NCCCC[C@H](N[C@@H](CCc1ccccc1)C(=O)O)C(=O)N1CCC[C@H]1C(=O)O` [lisinopril]: the “effect of chronic background medication on functional sympatholysis / functional ischemia in DMD” value in data set [1] is “does not rescue functional sympatholysis”.

As to `CCCCc1nc(Cl)c(CO)n1Cc1ccc(-c2ccccc2-c2nn[nH]n2)cc1` [losartan], the “effect of chronic background medication on functional sympatholysis / functional ischemia in DMD” value in data set [1] is on record as “does not rescue functional sympatholysis”.

As for `C[C@]12C=CC(=O)C=C1CC[C@@H]1[C@@H]2C(=O)C[C@@]2(C)[C@H]1CC[C@]2(O)C(=O)CO` [prednisone], the “effect of chronic background medication on functional sympatholysis / functional ischemia in DMD” value in data set [1] was “neither prednisone nor deflazacort protects dystrophic muscle from functional ischemia”.

With `CCCc1nn(C)c2c(=O)[nH]c(-c3cc(S(=O)(=O)N4CCN(C)CC4)ccc3OCC)nc12` [sildenafil], the half-life was 2.4 ± 0.09 h in data set [2] (0.5 mg/kg) and 3.2 ± 0.5 h in data set [2] (1 mg/kg). Also, in data set [2] (po), the “time after ingestion at which blood level had returned close to baseline” value was found to be 4 h. Also, the peak blood level turned out to be 82.5 ± 26.6 ng/mL in data set [2] (po, 0.5 mg/kg) and 167.5 ± 34.1 ng/mL in data set [2] (po, 1 mg/kg). In addition, the “BA VC (vascular conductance)” value is 2.3 ± 0.3 ml/min/mmHg in data set [3] (0.5 mg/kg, Post-exercise); 1.7 ± 0.3 ml/min/mmHg in data set [3] (0.5 mg/kg, Rest); 2.7 ± 0.3 ml/min/mmHg in data set [3] (1.0 mg/kg, Post-exercise); 1.9 ± 0.3 ml/min/mmHg in data set [3] (1.0 mg/kg, Rest). Moreover, the BA blood flow came out at 172 ± 18 mL/min in data set [3] (0.5 mg/kg, Post-exercise); 125 ± 19 mL/min in data set [3] (0.5 mg/kg, Rest); 196 ± 22 mL/min in data set [3] (1.0 mg/kg, Post-exercise); 137 ± 21 mL/min in data set [3] (1.0 mg/kg, Rest). Moreover, the BA velocity in data set [3] (0.5 mg/kg, Post-exercise) came to 32 ± 3; in data set [3] (0.5 mg/kg, Rest), 24 ± 4; in data set [3] (1.0 mg/kg, Post-exercise), 37 ± 3; in data set [3] (1.0 mg/kg, Rest), 27 ± 5. Further, the Heart rate in data set [3] (0.5 mg/kg, Post-exercise) is on record as 88 ± 6; in data set [3] (0.5 mg/kg, Rest) it was 84 ± 5; in data set [3] (1.0 mg/kg, Post-exercise), 93 ± 5; in data set [3] (1.0 mg/kg, Rest), 92 ± 5. The MAP in data set [3] (0.5 mg/kg, Post-exercise) came out at 75 ± 2 mmHg; in data set [3] (0.5 mg/kg, Rest), 77 ± 6 mmHg; in data set [3] (1.0 mg/kg, Post-exercise), 74 ± 2 mmHg; in data set [3] (1.0 mg/kg, Rest), 74 ± 2 mmHg. The “restoration of functional sympatholysis in DMD (in words)” value in data set [1] (6 patients with DMD, 0.5 and 1.0 mg/kg) was “equally restores functional sympatholysis”. Also, the “LBNP-induced ΔHbO2+MbO2 (% TLS) at rest” value in data set [1] (0.5 mg/kg oral) is listed as −18±4%; in data set [1] (1.0 mg/kg oral), −20±3%. Moreover, the “LBNP-induced ΔHbO2+MbO2 (% TLS) during handgrip” value was −10±3% in data set [1] (0.5 mg/kg oral) and −1±3% in data set [1] (1.0 mg/kg oral).
